Eleven molecules from ChEMBL document CHEMBL1135585, “Mixed steroidal 1,2,4,5-tetraoxanes: antimalarial and antimycobacterial activity” (J Med Chem, 2002) can be followed below.

Where “and” joins values, the source holds several entries; their conditions need not be identical. Equal entries are not always repeated.

The subject of test [1] is Plasmodium falciparum. Kind of test: microbe, parasite or virus in culture.
Description: (§1) In vitro inhibitory activity against chloroquine-sensitive Plasmodium falciparum African D6
Test [2] relates to Plasmodium falciparum. Briefly: microbe, parasite or virus in culture. This is another data set of the same source.
Description: (§2) In vitro inhibitory activity against chloroquine-resistant Plasmodium falciparum W2 Indochina
For test [3], the system named is Mycobacterium tuberculosis. Kind of test: In vitro inhibitory activity against Mycobacterium tuberculosis strain H37Rv at a concentration of 6.25 ug/mL. Format: functional.
For test [4], the system named is Plasmodium falciparum.
Description: as §2
Test [5] relates to Plasmodium falciparum. This is another data set of the same source.
Description: as §1
For test [6], the system named is Mycobacterium tuberculosis. Kind of test: In vitro anti-mycobacterial activity against Mycobacterium tuberculosis strain H37Rv. The test is classed as functional.
Another test concerns Vero. Kind of test: In vitro cytotoxicity against VERO cell line. To be noted: Chlorocebus sabaeus. The test is classed as functional, cell-based.

Take `CCNC(=O)CCC(C)C1CC[C@H]2[C@@H]3[C@H](OC(C)=O)C[C@@H]4CC5(CC[C@]4(C)[C@H]3C[C@H](OC(C)=O)[C@]12C)OOC1(CCC(CC)CC1)OO5` (mixture of isomers; 22): the IC50 (in general, the midpoint of a concentration-inhibition curve) stood at 19.8 nM in the test on Plasmodium falciparum [1] and 9.56 nM in the test on Plasmodium falciparum [2].

`COC(=O)CCC(C)C1CC[C@H]2[C@@H]3[C@H](OC(C)=O)C[C@@H]4CC5(CC[C@]4(C)[C@H]3C[C@H](OC(C)=O)[C@]12C)OOC1(CCC(C)CC1)OO5` (stereo in doubt; 3g): in test [3], at 6.25 µg/mL the inhibition was 29%. Moreover, the IC50 in the test on Plasmodium falciparum [4] was 5.05 nM; with Plasmodium falciparum [5], 9.99 nM. Besides, the MIC (as a rule, the smallest concentration in the dilution series that meets the test's criterion for growth inhibition) in test [6] is > 6.25 µg/mL and > 9.63 µM.

Take `CC(=O)O[C@H]1C[C@H]2[C@@H]([C@H](OC(C)=O)C[C@@H]3CC4(CC[C@@]32C)OOC2(CCC(C)CC2)OO4)[C@@H]2CCC(C(C)CCC(=O)O)[C@@]12C` (stereo in doubt; 4g): at 6.25 µg/mL the inhibition in test [3] was 21%. The IC50 with Plasmodium falciparum [4] came out at 0.98 nM; in the test with Plasmodium falciparum [5] it was 1.53 nM. Besides, the MIC in test [6] is > 6.25 µg/mL and > 9.84 µM.

Regarding `CCC1CCC2(CC1)OOC1(CC[C@@]3(C)[C@H](C[C@@H](OC(C)=O)[C@@H]4[C@@H]3C[C@H](OC(C)=O)[C@]3(C)C(C(C)CCC(=O)O)CC[C@@H]43)C1)OO2` (stereo in doubt; 4i), the IC50 in the test on Plasmodium falciparum [1] was found to be 5.76 nM; in the test on Plasmodium falciparum [2], 7.26 nM.

As to `CC(=O)O[C@H]1C[C@H]2[C@@H]([C@H](OC(C)=O)C[C@@H]3CC4(CC[C@@]32C)OOC2(CCC(C)CC2)OO4)[C@@H]2CCC(C(C)CCC(N)=O)[C@@]12C` (stereo in doubt; 12), in test [3], the inhibition (as a rule, the percentage by which the read-out fell short of the control) at 6.25 µg/mL was found to be 99%. Moreover, the IC50 with Vero was 3.49 µg/mL and 5.51 µM; in the test on Plasmodium falciparum [4], 0.58 nM; in the test with Plasmodium falciparum [5], 1.17 nM. Further, in test [6], the MIC is 3.13 µg/mL and 4.94 µM.

For `CNC(=O)CCC(C)C1CC[C@H]2[C@@H]3[C@H](OC(C)=O)C[C@@H]4CC5(CC[C@]4(C)[C@H]3C[C@H](OC(C)=O)[C@]12C)OOC1(CCC(C)CC1)OO5` (stereo in doubt; 13), the inhibition at 6.25 µg/mL in test [3] stood at 98%. The IC50 with Vero was 5.69 µg/mL and 8.78 µM; in the test with Plasmodium falciparum [4], 3.61 nM; with Plasmodium falciparum [5], 5.96 nM. The MIC in test [6] is 6.25 µg/mL and 9.65 µM.

As to `CCNC(=O)CCC(C)C1CC[C@H]2[C@@H]3[C@H](OC(C)=O)C[C@@H]4CC5(CC[C@]4(C)[C@H]3C[C@H](OC(C)=O)[C@]12C)OOC1(CCC(C)CC1)OO5` (stereo in doubt; 14), the inhibition at 6.25 µg/mL in test [3] came out at 98%. For the same molecule, the 50% inhibitory concentration (IC50) was 5.37 µg/mL and 8.11 µM in the test on Vero; 3.93 nM in the test with Plasmodium falciparum [4]; 5.8 nM in the test with Plasmodium falciparum [5]. The MIC in test [6] is 3.13 µg/mL and 4.73 µM.

Consider `CCCNC(=O)CCC(C)C1CC[C@H]2[C@@H]3[C@H](OC(C)=O)C[C@@H]4CC5(CC[C@]4(C)[C@H]3C[C@H](OC(C)=O)[C@]12C)OOC1(CCC(C)CC1)OO5` (stereo in doubt; 15), for which at 6.25 µg/mL the inhibition in test [3] was 94%. Moreover, the IC50 in the test on Vero was 8.34 µg/mL and 12.3 µM; in the test on Plasmodium falciparum [4], 3.82 nM; with Plasmodium falciparum [5], 3.22 nM. In test [6], the MIC is 6.25 µg/mL and 9.25 µM.

For `C[C@@H]1CC[C@H]2[C@@H](C)C(=O)O[C@@H]3O[C@@]4(C)CC[C@@H]1[C@]32OO4` [ARTEMISININ], the concentration for half-maximal inhibition (IC50) was 8.4 nM with Plasmodium falciparum [1] and 7.3 nM with Plasmodium falciparum [2].

Consider `NNC(=O)c1ccncc1` [ISONIAZID], for which the IC50 in the test on Vero is > 1000 µg/mL and > 7 mM. In test [6], the MIC was 0.05 µg/mL and 0.36 µM.

In the case of `CO[C@H]1/C=C/O[C@@]2(C)Oc3c(C)c(O)c4c(O)c(c(/C=N/N5CCN(C)CC5)c(O)c4c3C2=O)NC(=O)/C(C)=C\C=C\[C@H](C)[C@H](O)[C@@H](C)[C@@H](O)[C@@H](C)[C@H](OC(C)=O)[C@@H]1C` [RIFAMPIN], in the test with Vero, the IC50 is 111 µg/mL and 134 µM. In addition, the MIC in test [6] is 0.12 µg/mL and 0.15 µM.
